# According to patent US20050085554A1, “Methods of treating disease through the administration of a manzamine analog or derivative” (priority 2003, published 2005):
# What was measured:
# Leishmania donovani = assay: Antileishmanial activity in vitro; assay type: cell-based
# [1] = test system: Plasmodium falciparum (D6 clone); assay: Antimalarial activity in vitro, D6 clone; assay type: cell-based
# [2] = test system: P. falciparum (chlorine-resistant W2 clone); assay: Antimalarial activity in vitro, W2 clone; assay type: cell-based, Plasmodium falciparum
# [3] = test system: Mycobacterium intracellulare; assay: Activity against M. intracellulare; assay type: cell-based; settings: for IC50 M. intracellulare: T5, NA = not active
# [4] = test system: methicillin-resistant Staphylococcus aureus; assay: Antibacterial activity against MRS; assay type: cell-based; settings: T5; NA = not active
# HIV-1LAV = assay: Anti-HIV-1 activity in PBM cells; assay type: cell-based, human immunodeficiency virus (HIV-1); settings: T5
# Procedure: Anti-HIV-1 activity was determined in PBM cells as described previously. See, Stock solutions (20 or 40 mM) of the compounds were prepared in sterile DMSO and then diluted to the desired concentration in growth medium. Cells were infected with the prototype HIV-1LAV at a multiplicity of infection of 0.1. Details on the infection of cells and assessment of antiviral effects was described previously. See, Schinazi, R. F.; McMillan, A.; Cannon, D.; Mathis, R.; Lloyd, R. M.; Peck, A.; Sommadossi, J.-P.; Clair, M. S.; Wilson, J.; Furman, P. A.; Painter G.; Choi, W.-B.; Liotta, D. C. Antimicrob. Agents Chemother. 1992, 36, 2423-2431 and Schinazi, R. F.; Sommadossi, J.-P.; Saalmann, V.; Cannon, D. L.; Xie, M.-Y.; Hart, G. C.; Smith, G. A.; Hahn, E. F. Antimicrob. Agents Chemother. 1990, 34, 1061-1067.
# [5] = test system: Mycobacterium tuberculosis H37Rv; assay: In vitro antimycobacterial activity (Microplate Alamar Blue Assay), MIC; assay type: cell-based; settings: T4
# Staphylococcus aureus = assay: Antibacterial activity against S. aureus; assay type: cell-based; settings: T5; NA = not active
# Cryptococcus neoformans = assay: Antifungal activity against Cryptococcus neoformans; assay type: cell-based; settings: T5; NA = not active
compound,measurement,setting,value
12-O-methylmanzamine-A,Leishmania donovani IC 50,Leishmania donovani; T7,6.5 mg/L
same,Leishmania donovani IC 90,Leishmania donovani; T7,16 mg/L
same,Plasmodium falciparum (D6 clone) IC 50,[1]; T7,1.9 mg/L
same,P. falciparum (chlorine-resistant W2 clone) IC 50,[2]; T7,1 mg/L
same,M. intracellulare IC50,"[3]; T7, first value of a cell '2.0/5.0'",2.0 mg/L
same,"M. intracellulare, second value of the cell (presumably MIC)","[3]; T7, value after the slash under head IC50",5.0 mg/L
"Oc1cccc2c1[nH]c1c(C3=C[C@@]4(O)CC/C=C\CCCCN5CCC3[C@]3(CC6/C=C\CCCCN6[C@H]34)C5)nccc12 (single isomer, unassigned; (+)) [(+)-8-Hydroxymanzamine A]",Antibacterial IC50 MRS,[4],4.0 mg/L
same,Leishmania donovani IC 50,Leishmania donovani; T4,6.2 mg/L
same,Leishmania donovani IC 90,Leishmania donovani; T4,11 mg/L
same,EC50,HIV-1LAV,0.59 µM
same,Mycobacterium Tuberculosis (H37Rv) MIC,[5],0.91 mg/L
same,Antibacterial IC50 S. aureus,Staphylococcus aureus,0.9 mg/L
same,Plasmodium falciparum (D6 clone) IC 50,"[1]; T4, NA = not active",0.006 mg/L
same,Antifungal IC50 C. neoformans,Cryptococcus neoformans,3.0 mg/L
same,P. falciparum (chlorine-resistant W2 clone) IC 50,"[2]; T4, NA = not active",0.008 mg/L
same,IC50 M. intracellulare,[3],1.0 mg/L
O[C@]12C=C(c3nccc4c3[nH]c3ccccc34)C3CCN(CCCC/C=C\CC1)C[C@@]31C[C@]34CC[C@H](CCCN3[C@H]12)O4 (stereo partly shown) [6-Deoxymanzamine X],Antibacterial IC50 MRS,[4],1.5 mg/L
same,Leishmania donovani IC 50,Leishmania donovani; T4,3.2 mg/L
same,Leishmania donovani IC 90,Leishmania donovani; T4,7.5 mg/L
same,EC50,HIV-1LAV,1.6 µM
same,Mycobacterium Tuberculosis (H37Rv) MIC,[5],1.77 mg/L
same,Antibacterial IC50 S. aureus,Staphylococcus aureus,1.5 mg/L
same,Plasmodium falciparum (D6 clone) IC 50,"[1]; T4, NA = not active",1.3 mg/L
same,Antifungal IC50 C. neoformans,Cryptococcus neoformans,2.0 mg/L
same,P. falciparum (chlorine-resistant W2 clone) IC 50,"[2]; T4, NA = not active",1.4 mg/L
same,IC50 M. intracellulare,[3],6.25 mg/L
O=C1CCCN2[C@@H](CC1)C[C@]13CN4CCCC/C=C\CC[C@](O)(C=C(c5nccc6c5[nH]c5ccc(O)cc56)[C@@H]1CC4)[C@H]23 [6-Hydroxymanzamine E],Leishmania donovani IC 50,Leishmania donovani; T4,2.5 mg/L
same,Leishmania donovani IC 90,Leishmania donovani; T4,4.3 mg/L
same,Mycobacterium Tuberculosis (H37Rv) MIC,[5],0.4 mg/L
same,Plasmodium falciparum (D6 clone) IC 50,"[1]; T4, NA = not active",0.78 mg/L
same,Antifungal IC50 C. neoformans,Cryptococcus neoformans,5.5 mg/L
same,P. falciparum (chlorine-resistant W2 clone) IC 50,"[2]; T4, NA = not active",0.87 mg/L
same,IC50 M. intracellulare,[3],3.5 mg/L
"O=C1CCCN2C3C45C=C(c6nccc7c6[nH]c6ccccc67)C6CCN(CCCC/C=C\CC4)CC63C[C@@]2(CC1)O5 (stereo partly shown) [12,34-Oxamanzamine E]",EC50,HIV-1LAV,17.5 µM
CCCCOC12C=C(c3nccc4c3[nH]c3ccccc34)C3CCN(CCCCC=CCC1)CC31CC3C=CCCCCN3C21 (stereo not shown) [12-O-butylmanzamine-A],Leishmania donovani IC 50,Leishmania donovani; T7,4.7 mg/L
same,Leishmania donovani IC 90,Leishmania donovani; T7,9.1 mg/L
CCOC12C=C(c3nccc4c3[nH]c3ccccc34)C3CCN(CCCCC=CCC1)CC31CC3C=CCCCCN3C21 (stereo not shown) [12-O-ethylmanzamine-A],Leishmania donovani IC 50,Leishmania donovani; T7,2.8 mg/L
same,Leishmania donovani IC 90,Leishmania donovani; T7,8.2 mg/L
CC(C)COC12C=C(c3nccc4c3[nH]c3ccccc34)C3CCN(CCCCC=CCC1)CC31CC3C=CCCCCN3C21 (stereo not shown) [12-O-isobutylmanzamine-A],Leishmania donovani IC 50,Leishmania donovani; T7,0.98 mg/L
same,Leishmania donovani IC 90,Leishmania donovani; T7,2.6 mg/L
CCCOC12C=C(c3nccc4c3[nH]c3ccccc34)C3CCN(CCCCC=CCC1)CC31CC3C=CCCCCN3C21 (stereo not shown) [12-O-propylmanzamine-A],Leishmania donovani IC 50,Leishmania donovani; T7,4.5 mg/L
same,Leishmania donovani IC 90,Leishmania donovani; T7,8.7 mg/L
"COc1ccc(OC)c(NC2CCCN3C(CC2)C[C@]24CN5CCCC/C=C\CC[C@](O)(C=C(c6nccc7c6[nH]c6c(O)cccc67)C2CC5)[C@H]34)c1 (stereo partly shown) [33-(2,5-dimethoxyaniline)-manzamine-F]",Plasmodium falciparum (D6 clone) IC 50,"[1]; T8, NA not defined",1.7 mg/L
same,P. falciparum (chlorine-resistant W2 clone) IC 50,[2]; T8,2.6 mg/L
Oc1cccc2c1[nH]c1c(C3=C[C@@]4(O)CC/C=C\CCCCN5CCC3[C@]3(CC6CCC(NCc7ccc(Cl)cc7)CCCN6[C@H]34)C5)nccc12 (stereo partly shown) [33-(p-chlorobenzylamino)-manzamine-F],Plasmodium falciparum (D6 clone) IC 50,"[1]; T8, NA not defined",0.68 mg/L
same,P. falciparum (chlorine-resistant W2 clone) IC 50,[2]; T8,1.3 mg/L
